Structures are written as SMILES.

In the assay the target is GIRK1/4 (Homo sapiens (Human), UniProt P48544+P48549). Description: GIRK1/4 inhibition, Quattro (IonWorks) population patch clamp, inward potassium current in GIRK 1/4 HEK293 stable cells (test assay No. 1). It counts as cell-based. Particulars: percentage of current inhibition normalized to DMSO-only control. On the procedure: The activity of a compound according to the present invention can be assessed by the following in vitro method. • 1. Buffers: • a. External buffer: 10 mM NaCl, 50 mM Na Gluconate, 80 mM K Gluconate, 1.8 mM CaCl2, 1 mM MgCl2, 10 mM HEPES, 10 mM Glucose, pH 7.4; osmolality […]. • b. Internal buffer: 30 mM KCl, 100 mM K Gluconate, 1 mM MgCl2, 10 mM HEPES, 1 mM EGTA, 10 mM NaCl, pH 7.2; osmolality […]. • 2. Compounds: • a. Prepare seven-fold compound dilution series (10 mM to 20 uM) in 100% DMSO, in 384-well polypropylene plates. • b. Propafenone (Sigma Aldrich, catalog number P4670) is used as a positive control and DMSO for neutral control • c. Resuspend 1 ul of compounds in DMSO into 65.7 ul external buffer in 384-well polypropylene plate and load into Plate 1 section of Molecular Devices Quattro • 3. Quattro setup: • a. Load 384-well Population Patch Plate (Molecular Devices #9000-0902) into Quattro • b. Fill Quattro F-soak trough with 20% DMSO and 50% EtOH • c. Fill Quattro buffer trough with external buffer • d. Attach internal buffer flask to Quattro internal buffer tubing • e. Attach PBS (Phosphate Buffered Saline, minus Ca^++ and Mg^++, pH7.4) bottle to F-head & E-head wash on Quattro • 4. Antibiotic: • a. Resuspend 5.6 mg amphotericin B (Sigma Aldrich, catalog number A2411) in 175 ul DMSO • b. Add the resulting solution to 50 ml internal buffer, mix and attach to antibiotic tubing port on Quattro • 5. Cells: • a. Use GIRK 1/4 HEK293 stable cells (obtained from ChanTest, 14656 Neo Parkway, Cleveland, Ohio 44128) grown to […] confluency in the following cell culture medium: DMEM containing 10% (v/v) Fetal Bovine Serum, Penicillin/Streptomycin (at “1×” concentration from a 100× stock), 0.5 mg/ml G418 and 0.1 mg/ml Zeocin. • b. Wash cells with PBS (minus Ca^++ and Mg^++), Detach cells using Detachin (Genlantis, 11011 Torreyana, San Diego, Calif. 92121), and resuspend in external buffer (5 ml final volume at 2.0-2.1×10^6 cells/ml) • c. Load into cell trough of Quattro • 6. Assay Protocol: • Quattro is controlled using IonWorks v2 software to perform the following steps: • a. Add 3.5 ul cells plus 3.5 ul external buffer to wells of Quattro Patch Plate • b. Circulate amphotericin B and internal buffer onto cells • c. Apply the following voltage protocol: Pulse 1: 15 mV for 300 milliseconds (ms), followed by Pulse 2: −120 mV for 400 ms, then Pulse 3: −15 mV for 400 ms, and finally Pulse 4: −120 mV to 40 mV over 500 ms (this is a voltage ramp). • d. Measure magnitude of inward potassium current at time point between 1200-1220 ms from start of Pulse 1 (i.e. during the voltage ramp phase). • e. Add 3.5 ul of diluted compounds (or DMSO) to wells and repeat steps c-d (final compound concentrations are 50 uM to 0.1 uM, for potent compounds 0.5 uM to 0.01 uM and each concentration is tested in quadruplicate—i.e. in 4 separate wells). • f. The difference between current magnitude pre vs. post-compound gives a measure of GIRK1/4 inhibition. • 7. Data analysis:
IC50 values are calculated by plotting the percentage of current inhibition (normalized to the DMSO-only control) as a function of compound concentration using standard data analysis software.

Chain of GIRK1/4 (P48549 whole entry): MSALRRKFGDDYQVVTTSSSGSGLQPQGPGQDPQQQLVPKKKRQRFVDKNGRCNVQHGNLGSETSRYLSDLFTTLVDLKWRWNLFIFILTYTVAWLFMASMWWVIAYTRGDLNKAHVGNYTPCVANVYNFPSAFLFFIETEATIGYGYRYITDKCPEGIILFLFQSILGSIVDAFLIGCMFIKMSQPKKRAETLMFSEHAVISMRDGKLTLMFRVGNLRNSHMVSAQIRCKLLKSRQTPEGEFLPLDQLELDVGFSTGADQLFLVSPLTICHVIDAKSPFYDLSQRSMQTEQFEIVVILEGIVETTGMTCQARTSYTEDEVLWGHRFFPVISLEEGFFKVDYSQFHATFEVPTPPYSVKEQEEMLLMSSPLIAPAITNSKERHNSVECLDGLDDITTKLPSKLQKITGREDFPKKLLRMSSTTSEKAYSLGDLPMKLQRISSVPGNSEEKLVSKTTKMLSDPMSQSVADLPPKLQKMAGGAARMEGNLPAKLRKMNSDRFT
Chain of GIRK1/4 (P48544 whole entry): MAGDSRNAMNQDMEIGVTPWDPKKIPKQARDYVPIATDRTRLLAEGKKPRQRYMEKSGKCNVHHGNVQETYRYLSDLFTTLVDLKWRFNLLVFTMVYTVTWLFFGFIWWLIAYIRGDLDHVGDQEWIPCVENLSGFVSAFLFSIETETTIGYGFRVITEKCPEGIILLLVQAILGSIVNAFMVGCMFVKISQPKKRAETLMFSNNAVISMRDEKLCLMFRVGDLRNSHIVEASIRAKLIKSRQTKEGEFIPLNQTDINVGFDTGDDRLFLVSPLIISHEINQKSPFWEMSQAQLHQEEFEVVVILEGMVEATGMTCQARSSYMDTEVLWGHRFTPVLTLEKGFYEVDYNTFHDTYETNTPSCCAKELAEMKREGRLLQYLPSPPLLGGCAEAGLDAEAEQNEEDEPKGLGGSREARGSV

In turn, `Cc1cc(=O)c2c(OCCOCCOCCOCCOCCOCCO)ncc(Cl)c2n1-c1c(Cl)cccc1Cl` [Example 19, 8-chloro-1-(2,6-dichlorophenyl)-5-((17-hydroxy-3,6,9,12,15-pentaoxaheptadecyl)oxy)-2-methyl-1,6-naphthyridin-4(1H)-one] returned an IC50 of 98 nM. That is a double-digit nanomolar value.

The compound `Cc1cc(=O)c2c(OCC(O)COCC(O)CO)ncc(Cl)c2n1-c1c(Cl)cccc1Cl` (stereo not shown) [Example 20, 8-chloro-1-(2,6-dichlorophenyl)-5-(3-(2,3-dihydroxypropoxy)-2-hydroxypropoxy)-2-methyl-1,6-naphthyridin-4(1H)-one] registered an IC50 of 173 nM.

In turn, `Cc1cc(=O)c2c(OCCOCCOCCOCCO)ncc(Cl)c2n1-c1c(Cl)cccc1C#N` [Example 21, 3-chloro-2-(8-chloro-5-(2-(2-(2-(2-hydroxyethoxy)ethoxy)ethoxy)ethoxy)-2-methyl-4-oxo-1,6-naphthyridin-1(4H)-yl)benzonitrile] displayed an IC50 of 154 nM. This IC50 and that of the compound before are within 1.5-fold of each other.

`Cc1cc(=O)c2c(NCCNS(C)(=O)=O)cncc2n1-c1c(Cl)cc(C#N)cc1Cl` [Example 22, N-(2-((1-(2,6-dichloro-4-cyanophenyl)-2-methyl-4-oxo-1,4-dihydro-1,7-naphthyridin-5-yl)amino)ethyl)methanesulfonamide] displayed an IC50 of 148 nM. This IC50 and that of the compound before are within 1.5-fold of each other.

`Cc1cc(=O)c2c(OCCOCCOCCOCCO)ncc(Cl)c2n1-c1c(Cl)cc(F)cc1C#N` [Example 23, 3-chloro-2-(8-chloro-5-(2-(2-(2-(2-hydroxyethoxy)ethoxy)ethoxy)ethoxy)-2-methyl-4-oxo-1,6-naphthyridin-1(4H)-yl)-5-fluorobenzonitrile] returned an IC50 of 344 nM.

`Cc1cc(=O)c2c(OCCOCCOCCOCCOCCOCCO)ncc(Cl)c2n1-c1c(Cl)cc(F)cc1Cl` [Example 24, 8-chloro-1-(2,6-dichloro-4-fluorophenyl)-5-((17-hydroxy-3,6,9,12,15-pentaoxaheptadecyl)oxy)-2-methyl-1,6-naphthyridin-4(1H)-one] yielded an IC50 of 253 nM.

`Cc1cc(=O)c2c(N3CCN(CCO)CC3)ncc(Cl)c2n1-c1c(Cl)cc(C#N)cc1Cl` [Example 25, 3,5-dichloro-4-(8-chloro-5-(4-(2-hydroxyethyl)piperazin-1-yl)-2-methyl-4-oxo-1,6-naphthyridin-1(4H)-yl)benzonitrile]: the IC50 stood at 146 nM.

`Cc1cc(=O)c2c(OCC(O)C(O)CO)ncc(Cl)c2n1-c1c(Cl)cccc1Cl` (stereo not shown) [Example 26, 8-chloro-1-(2,6-dichlorophenyl)-2-methyl-5-(2,3,4-trihydroxybutoxy)-1,6-naphthyridin-4(1H)-one]: the IC50 is 31 nM. Against the preceding compound, the IC50 is about 4.7-fold lower.

In the case of `Cc1cc(=O)c2c(NCCO)cncc2n1-c1c(Cl)cc(C#N)cc1Cl` [Example 27, 3,5-dichloro-4-(5-((2-hydroxyethyl)amino)-2-methyl-4-oxo-1,7-naphthyridin-1(4H)-yl)benzonitrile], the IC50 was 150 nM.

`Cc1cc(=O)c2c(N3CC(O)C3)cncc2n1-c1c(Cl)cc(C#N)cc1Cl` [Example 29, 3,5-dichloro-4-(5-(3-hydroxyazetidin-1-yl)-2-methyl-4-oxo-1,7-naphthyridin-1(4H)-yl)benzonitrile]: the IC50 came out at 505 nM.

Compound `Cc1cc(=O)c2c(OCCOCCOCCOCCO)ncc(Cl)c2n1-c1c(Cl)cccc1Cl` [Example 30, 8-chloro-1-(2,6-dichlorophenyl)-5-(2-(2-(2-(2-hydroxyethoxy)ethoxy)ethoxy)ethoxy)-2-methyl-1,6-naphthyridin-4(1H)-one] displayed an IC50 of 25 nM.

`Cc1cc(=O)c2c(OCCOCCOCCOCCO)ncc(Cl)c2n1-c1c(Cl)cc(F)cc1Cl` [Example 32, 8-chloro-1-(2,6-dichloro-4-fluorophenyl)-5-(2-(2-(2-(2-hydroxyethoxy)ethoxy)ethoxy)ethoxy)-2-methyl-1,6-naphthyridin-4(1H)-one] displayed an IC50 of 33 nM.

On to `Cc1cc(=O)c2c(N3C[C@@H](O)[C@@H](O)C3)ncc(Cl)c2n1-c1c(Cl)cccc1Cl` [Example 33, 8-chloro-1-(2,6-dichlorophenyl)-5-((3R,4S)-3,4-dihydroxypyrrolidin-1-yl)-2-methyl-1,6-naphthyridin-4(1H)-one], for which the IC50 stood at 100 nM.

`Cc1cc(=O)c2c(OCC(O)CO)ncc(Cl)c2n1-c1c(Cl)cccc1C#N` (stereo not shown) [Example 34, 3-chloro-2-(8-chloro-5-(2,3-dihydroxypropoxy)-2-methyl-4-oxo-1,6-naphthyridin-1(4H)-yl)benzonitrile] registered an IC50 of 240 nM. Against the preceding compound, the IC50 is about 2.4-fold higher.

In turn, `Cc1cc(=O)c2c(NCCc3c[nH]cn3)ncc(Cl)c2n1-c1c(Cl)cccc1Cl` [Example 35, 5-((2-(1H-imidazol-4-yl)ethyl)amino)-8-chloro-1-(2,6-dichlorophenyl)-2-methyl-1,6-naphthyridin-4(1H)-one] registered an IC50 of 35 nM. This IC50 is about 6.9-fold lower than that of the compound before.

Regarding `Cc1cc(=O)c2c(OCCNS(C)(=O)=O)ncc(Cl)c2n1-c1c(Cl)cccc1Cl` [Example 36, N-(2-((8-chloro-1-(2,6-dichlorophenyl)-2-methyl-4-oxo-1,4-dihydro-1,6-naphthyridin-5-yl)oxy)ethyl)methanesulfonamide], half-maximal inhibition (IC50) required 9 nM.

In turn, `Cc1cc(=O)c2c(NCCOCCOCCOCCO)ncc(Cl)c2n1-c1c(Cl)cccc1Cl` [Example 37, 8-chloro-1-(2,6-dichlorophenyl)-5-((2-(2-(2-(2-hydroxyethoxy)ethoxy)ethoxy)ethyl)amino)-2-methyl-1,6-naphthyridin-4(1H)-one] had an IC50 of 6 nM. This IC50 lies about 1.5-fold lower than the previous one.

The compound `Cc1cc(=O)c2c(OCC(O)CO)ncc(Cl)c2n1-c1c(Cl)cccc1Cl` (stereo not shown) [Example 38, 8-chloro-1-(2,6-dichlorophenyl)-5-(2,3-dihydroxypropoxy)-2-methyl-1,6-naphthyridin-4(1H)-one] displayed an IC50 of 8 nM. The IC50 values of the last two compounds are within 1.5-fold of each other.

Compound `Cc1cc(=O)c2c(NC[C@H](O)CO)ncc(Cl)c2n1-c1c(Cl)cccc1Cl` [Example 39, (S)-8-chloro-1-(2,6-dichlorophenyl)-5-((2,3-dihydroxypropyl)amino)-2-methyl-1,6-naphthyridin-4(1H)-one] returned an IC50 of 15 nM.

`Cc1cc(=O)c2c(OCC(O)C(C)(C)O)ncc(Cl)c2n1-c1c(Cl)cccc1Cl` (stereo not shown) [Example 40, 8-chloro-1-(2,6-chlorophenyl)-5-(2,3-dihydroxy-3-methylbutoxy)-2-methyl-1,6-naphthyridin-4(1H)-one] had an IC50 of 13 nM. This IC50 and that of the compound before are within 1.5-fold of each other.

`Cc1cc(=O)c2c(OCC(C)(CO)CO)ncc(Cl)c2n1-c1c(Cl)cccc1Cl` [Example 41, 8-chloro-1-(2,6-dichlorophenyl)-5-(3-hydroxy-2-(hydroxymethyl)-2-methylpropoxy)-2-methyl-1,6-naphthyridin-4(1H)-one] showed a concentration for half-maximal inhibition (IC50) of 28 nM.

For the compound `Cc1cc(=O)c2c(OCC(C)(C)O)ncc(Cl)c2n1-c1c(Cl)cccc1Cl` [Example 42, 8-chloro-1-(2,6-dichlorophenyl)-5-(2-hydroxy-2-methylpropoxy)-2-methyl-1,6-naphthyridin-4(1H)-one], the IC50 amounted to 15 nM.

In turn, `Cc1cc(=O)c2c(N[C@@H]3COC[C@H]3O)ncc(Cl)c2n1-c1c(Cl)cc(C#N)cc1Cl` [Example 43, 3,5-dichloro-4-(8-chloro-5-(((3R,4S)-4-hydroxytetrahydrofuran-3-yl)amino)-2-methyl-4-oxo-1,6-naphthyridin-1(4H)-yl)benzonitrile] registered an IC50 of 26 nM.

Regarding `Cc1cc(=O)c2c(NOCCO)ncc(Cl)c2n1-c1c(Cl)cc(C#N)cc1Cl` [Example 44, 3,5-dichloro-4-(8-chloro-5-((2-hydroxyethoxy)amino)-2-methyl-4-oxo-1,6-naphthyridin-1(4H)-yl)benzonitrile], it took 56 nM to reach half-maximal inhibition (IC50).

In turn, `Cc1cc(=O)c2c(Nc3nnnn3C)ncc(Cl)c2n1-c1c(Cl)cccc1Cl` [Example 45, 8-chloro-1-(2,6-dichlorophenyl)-2-methyl-5-((1-methyl-1H-tetrazol-5-yl)amino)-1,6-naphthyridin-4(1H)-one] yielded an IC50 of 149 nM.
